Test results published in ChEMBL document CHEMBL1142690, “Synthesis of NO-donor bisphosphonates and their in-vitro action on bone resorption” (J Med Chem, 2005).

Columns and labels:
[1] = Affinity for hydroxyapatite after 24 hours; type: functional
[2] = Dissociation constant determined by the pH-metric method; type: functional
Rattus norvegicus = species: Rattus norvegicus; experiment: Effect of compound on osteoclasts formation at concentration of 100 nM in rat femurs; type: functional, Femur
RAW264.7 [3] = experiment: Effect of compound on osteoclasts formation (compound concentration of 100 nM and RANKL at 50 ng/ml) as observed in clonal RAW264.7 cells; type: functional, Mus musculus
RAW264.7 [4] = experiment: Effect of compound on osteoclasts formation (compound concentration of 100 nM, RANKL at 50 ng/ml and ODQ at 10 uM) as observed in clonal RAW264.7 cells; type: functional, Mus musculus
Rattus [5] = experiment: Effect of compound on osteoclast resorption activity at concentration of 100 nM in rat femur; type: functional
Rattus [6] = experiment: Effect of compound on osteoclast resorption activity at concentration of 100 nM in rat femurs; type: functional, Femur

Structure (SMILES)	Affinity [1]	pKa1 [2]	pKa2 [2]	pKa3 [2]	pKa4 [2]	Count (Rattus norvegicus)	Count (RAW264.7 [3])	Count (RAW264.7 [4])	Ratio (Rattus [5])	Ratio (Rattus [6])
O=[N+]([O-])OCCCCC(P(=O)(O)O)P(=O)(O)O	65%	< 1.5	3.08	6.87	11.5	21.88	40.2	58.9	1.18	
CCCCCN(C)CCC(O)(P(=O)(O)O)P(=O)(O)O [IBANDRONIC ACID]							39.8	34.2		
CCCCC(P(=O)(O)O)P(=O)(O)O							61.2	62.4		
CC(C)C[C@H](NC(=O)[C@H](CCCCN)NC(=O)CNC(=O)[C@H](CC(C)C)NC(=O)[C@@H](NC(=O)[C@@H]1CSSC[C@H](N)C(=O)N[C@@H](CO)C(=O)N[C@@H](CC(N)=O)C(=O)N[C@@H](CC(C)C)C(=O)N[C@@H](CO)C(=O)N[C@@H]([C@@H](C)O)C(=O)N1)C(C)C)C(=O)N[C@@H](CO)C(=O)N[C@@H](CCC(N)=O)C(=O)N[C@@H](CCC(=O)O)C(=O)N[C@@H](CC(C)C)C(=O)N[C@@H](Cc1c[nH]cn1)C(=O)N[C@@H](CCCCN)C(=O)N[C@@H](CC(C)C)C(=O)N[C@@H](CCC(N)=O)C(=O)N[C@H](C(=O)N[C@@H](Cc1ccc(O)cc1)C(=O)N1CCC[C@H]1C(=O)N[C@@H](CCCNC(=N)N)C(=O)N[C@H](C(=O)N[C@@H](CC(N)=O)C(=O)N[C@H](C(=O)NCC(=O)N[C@@H](CO)C(=O)NCC(=O)N[C@H](C(=O)N1CCC[C@H]1C(N)=O)[C@@H](C)O)[C@@H](C)O)[C@@H](C)O)[C@@H](C)O [CALCITONIN SALMON]						27.5				0.01
O=P(O)(O)C(Sc1ccc(Cl)cc1)P(=O)(O)O	58.4%	< 1.5	2.27	6.31	10.6					
O=[N+]([O-])OCCCCC(O)(P(=O)(O)O)P(=O)(O)O	43.4%	< 1.5	2.85	6.83	11.3		32.8	59.6		
